The numbers were not newly measured in patent publication US20200299317A1 (Tokuyama Corporation, priority 2018, published 2020), which cites them from elsewhere.

For the data set the following is noted: ferric citrate obtainable per Patent Literature 2.

For the substance ferric citrate, the “BET specific surface area” value was 20 to 45 m^2/g.
